Our source for the T/C values is PubChem BioAssay AID248 (DTP/NCI, 2004).

The subject of the assay is L1210 leukemia ip in BDF1 mice, survival T/C. Put plainly: NCI In Vivo Anticancer Drug Screen. Data for tumor model L1210 Leukemia (intraperitoneal) in B6D2F1 (BDF1) mice. The settings on record: endpoint: mean survival time, higher = longer survival. Summed up:
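Tumor cells were implanted, animals were treated, and survival was followed. The result divides the treated measurement by the vehicle-control measurement.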

The mark [1] stands for this setting: dose: 100.0 mg/kg/injection, schedule: Q01DX001 (ip), vehicle: acetone.
The mark [2] stands for this setting: dose: 200.0 mg/kg/injection, schedule: Q01DX001 (ip), vehicle: acetone.
Setting [3] is: dose: 100.0 mg/kg/injection, schedule: Q01DX009 (ip), vehicle: saline with Tween-80.
[4] abbreviates: dose: 100.0 mg/kg/injection, schedule: Q04DX003 (ip), vehicle: saline with Tween-80.
Where [5] appears, read: dose: 200.0 mg/kg/injection, schedule: Q01DX009 (ip), vehicle: saline with Tween-80.
Where [6] appears, read: dose: 200.0 mg/kg/injection, schedule: Q04DX003 (ip), vehicle: saline with Tween-80.
[7] abbreviates: dose: 400.0 mg/kg/injection, schedule: Q01DX009 (ip), vehicle: saline with Tween-80.
Where [8] appears, read: dose: 400.0 mg/kg/injection, schedule: Q04DX003 (ip), vehicle: saline with Tween-80.
Setting [9] is: dose: 100.0 mg/kg/injection, schedule: Q01DX001 (ip), vehicle: saline.
[10] abbreviates: dose: 200.0 mg/kg/injection, schedule: Q01DX001 (ip), vehicle: saline.
[11] abbreviates: dose: 400.0 mg/kg/injection, schedule: Q01DX001 (ip), vehicle: saline.
The mark [12] stands for this setting: dose: 100.0 mg/kg/injection, schedule: Q04DX003 (ip), vehicle: Klucel (hydroxypropylcellulose) (HPC).
Where [13] appears, read: dose: 200.0 mg/kg/injection, schedule: Q04DX003 (ip), vehicle: Klucel (hydroxypropylcellulose) (HPC).
Setting [14] is: dose: 400.0 mg/kg/injection, schedule: Q04DX003 (ip), vehicle: Klucel (hydroxypropylcellulose) (HPC).
Where [15] appears, read: dose: 100.0 mg/kg/injection, schedule: Q01DX009 (ip), vehicle: Klucel (hydroxypropylcellulose) (HPC).
The mark [16] stands for this setting: dose: 400.0 mg/kg/injection, schedule: Q01DX009 (ip), vehicle: Klucel (hydroxypropylcellulose) (HPC).
Setting [17] is: dose: 100.0 mg/kg/injection, schedule: Q01DX001 (ip), vehicle: carboxymethylcellulose (CMC).
Where [18] appears, read: dose: 200.0 mg/kg/injection, schedule: Q01DX001 (ip), vehicle: carboxymethylcellulose (CMC).

Values joined by “and” are separate entries in the source; they are usually repeats but may differ in a detail not shown here. Equal entries are not always repeated. Inconclusive results and toxic doses are left out.

In the case of `CCCCCS(=O)(=O)N1CCCCC1`, the T/C runs as follows: (dose: 100.0 mg/kg/injection, schedule: Q04DX002 (ip), vehicle: other) 103 % of control; (dose: 200.0 mg/kg/injection, schedule: Q04DX002 (ip), vehicle: other) 92 % of control; (dose: 400.0 mg/kg/injection, schedule: Q04DX002 (ip), vehicle: other) 107 % of control.

Regarding `CCNS(=O)(=O)c1ccc(C(N)=S)cc1`, the T/C is 100 % of control (dose: 100.0 mg/kg/injection, schedule: Q01DX001 (ip), vehicle: saline with Tween-80); 97 % of control (dose: 200.0 mg/kg/injection, schedule: Q01DX001 (ip), vehicle: saline with Tween-80); 98 % of control (dose: 400.0 mg/kg/injection, schedule: Q01DX001 (ip), vehicle: saline with Tween-80).

For the molecule `COc1ccc2[nH]ccc2c1`, the T/C is 90 % of control (dose: 100.0 mg/kg/injection, schedule: Q01DX009 (ip), vehicle: other); 92 % of control (dose: 100.0 mg/kg/injection, schedule: Q04DX003 (ip), vehicle: other); 104 % of control (dose: 200.0 mg/kg/injection, schedule: Q01DX009 (ip), vehicle: other); 105 % of control (dose: 200.0 mg/kg/injection, schedule: Q04DX003 (ip), vehicle: other); 88 % of control (dose: 400.0 mg/kg/injection, schedule: Q01DX009 (ip), vehicle: other); 94 % of control (dose: 400.0 mg/kg/injection, schedule: Q04DX003 (ip), vehicle: other).

`C1=NN=C2C=C3CCc4ccccc4C3CC12` (centres undefined): the T/C reads like this: under setting [1], 93 % of control; under setting [2], 96 % of control.

Turning to `CCC[CH2][Tl]([Br])[CH2]CCC`, the T/C reads like this: (dose: 100.0 mg/kg/injection, schedule: Q04DX002 (ip), vehicle: saline with Tween-80) 98 % of control; (dose: 200.0 mg/kg/injection, schedule: Q04DX002 (ip), vehicle: saline with Tween-80) 103 % of control; (dose: 400.0 mg/kg/injection, schedule: Q04DX002 (ip), vehicle: saline with Tween-80) 106 % of control.

As to `CCCCCC(O)C(C)C` (centres undefined), the T/C (dose: 37.5 mg/kg/injection, schedule: Q04DX003 (ip), vehicle: saline) was 96 % of control; the T/C (dose: 75.0 mg/kg/injection, schedule: Q04DX003 (ip), vehicle: saline) is 108 % of control; the T/C (dose: 150.0 mg/kg/injection, schedule: Q04DX003 (ip), vehicle: saline) was 94 % of control.

For `OCCN(CCO)c1cc(O)cc(O)c1`, the T/C was 98 % of control under setting [3]; 98 % of control under setting [4]; 96 % of control under setting [5]; 91 % of control under setting [6]; 96 % of control under setting [7]; 102 % of control under setting [8].

As for `CC1CCc2cc3c(cc2C1=O)sc1ccccc13` (centres undefined), the T/C was 108 % of control under setting [9], 105 % of control under setting [10] and 89 % of control under setting [11].

Take `O=C(O)c1ccccc1Cl`: the T/C under setting [12] is 103 % of control, the T/C under setting [13] was 108 % of control and the T/C under setting [14] is 102 % of control.

For `CCCNC(=O)Nc1ccc(C)cc1C`, the T/C is 96 % of control under setting [3]; 97 % of control under setting [4]; 97 % of control under setting [5]; 97 % of control under setting [6]; 100 % of control under setting [7]; 101 % of control under setting [8].

Regarding `O=NN(CCCl)C(=O)NC1CSCSC1`, the T/C runs as follows: (dose: 7.0 mg/kg/injection, schedule: Q01DX001 (ip), vehicle: other) 284 % of control; (dose: 10.0 mg/kg/injection, schedule: Q01DX001 (ip), vehicle: other) 322 % of control; (dose: 15.0 mg/kg/injection, schedule: Q01DX001 (ip), vehicle: other) 333 % of control; (dose: 25.0 mg/kg/injection, schedule: Q01DX001 (ip), vehicle: other) 168 % of control; (dose: 30.0 mg/kg/injection, schedule: Q01DX001 (ip), vehicle: other) 277 % of control; (dose: 45.0 mg/kg/injection, schedule: Q01DX001 (ip), vehicle: other) 107 % of control.

With `c1ccc(Cc2[nH]nc(-c3ccccc3)c2N=Nc2ccccc2)cc1`, the T/C is, setting by setting: (dose: 100.0 mg/kg/injection, schedule: Q01DX001 (ip), vehicle: Klucel (hydroxypropylcellulose) (HPC)) 94 % of control; under setting [12], 103 % of control; (dose: 200.0 mg/kg/injection, schedule: Q01DX001 (ip), vehicle: Klucel (hydroxypropylcellulose) (HPC)) 94 % of control; under setting [13], 103 % of control; (dose: 400.0 mg/kg/injection, schedule: Q01DX001 (ip), vehicle: Klucel (hydroxypropylcellulose) (HPC)) 91 % of control; under setting [14], 100 % of control.

`S=C1SCN(C2CCCCC2)CN1C1CCCCC1`: the T/C was 94 % of control under setting [15]; 91 % of control under setting [12]; 95 % of control (dose: 200.0 mg/kg/injection, schedule: Q01DX009 (ip), vehicle: Klucel (hydroxypropylcellulose) (HPC)); 100 % of control under setting [13]; 94 % of control under setting [16]; 100 % of control under setting [14].

With `O=C1CC(=O)N(Cc2ccccc2)C(=O)N1`, the T/C under setting [17] is 86 % of control and the T/C under setting [18] was 95 % of control.

As to `CC1C(C)(C)P(=O)(Oc2ccc3ccccc3c2)C1(C)C` (centres undefined), the T/C is, setting by setting: under setting [4], 100 % of control; under setting [6], 97 % of control; under setting [8], 92 % of control.

Regarding `O=C(Oc1ccc(N=Nc2ccccc2)c(C(=O)O)c1)Oc1ccc(N=Nc2ccccc2)c(C(=O)O)c1`, the T/C runs as follows: under setting [17], 101 % of control; under setting [18], 98 % of control.

As for `CCOc1ccccc1Cl`, the T/C under setting [3] is 97 % of control, the T/C under setting [5] was 102 % of control and the T/C under setting [7] was 95 % of control.

As for `CCCCCCCCCCCCCC[As](=O)(O)CCCCCCCCCCCCCC`, the T/C is 103 % of control (dose: 50.0 mg/kg/injection, schedule: Q01DX001 (ip), vehicle: saline); 101 % of control under setting [9]; 101 % of control under setting [10]; 95 % of control under setting [11].

For `CCC(C)N=[N+]([O-])CC` (centres undefined), the T/C by setting is: under setting [1], 101 % of control; under setting [2], 112 % of control; (dose: 400.0 mg/kg/injection, schedule: Q01DX001 (ip), vehicle: acetone) 91 % of control.

Turning to `O=C(CNC(=O)NCc1ccco1)N/N=C/c1ccc(Cl)c(Cl)c1`, the T/C is 89 % of control (dose: 50.0 mg/kg/injection, schedule: Q01DX009 (ip), vehicle: Klucel (hydroxypropylcellulose) (HPC)); 86 % of control and 88 % of control under setting [15]; 90 % of control under setting [16].

For the molecule `ICC1COCC(CI)O1` (centres undefined), the T/C reads like this: under setting [3], 101 % of control; under setting [5], 113 % of control; under setting [7], 106 % of control.
